Results published in patent US20250305018A1, “SYNTHESIS OF GLYCOSYLATED HYDROXYTRYPTAMINE COMPOUNDS AND METHODS OF THEIR USE” (Cy Biopharma AG, priority 2022, published 2025).

Legend:
[1] = Pharmacokinetic experiment in mice, brain tissue concentrations by LC-MS/MS; format: in vivo, C57Bl/6J mice; settings: higher doses, oral, compared to psilocybin
Description: (§1) In a pharmacokinetic experiment in C57Bl/6J mice (3 animals per timepoint; schedule shown below) two example compounds, Cy1 (4-HO-EPT glycoside) and Cy2 (4-HO-DMT glycoside) were dosed at two different concentrations (20 mg/kg dose shown here) and the parent compounds and their de-glycosylated forms, 4-HO-EPT and psilocin (4-HO-DMT), respectively, were measured by LC-MS/MS in plasma and brain tissue samples. For comparison, psilocybin was dosed at 1.5 mg/kg orally and plasma and brain tissue concentrations of psilocin (4-HO-DMT) were measured. Samples were collected at four or five different timepoints (from 10-minutes post dosing up to 6-hours post dosing) following the test article administration.
(§2) Results are reported in ng/mL for the concentration in plasma and in ng/g tissue for the concentration measured in brain samples.
(§3) Results: The graphs in FIG. 35, FIG. 36, FIG. 37, and FIG. 38 display the time course of concentrations of compounds as indicated. For each time point the data for the individual animals are plotted.

[2] = Pharmacokinetic experiment in mice, plasma concentrations by LC-MS/MS; format: in vivo, C57Bl/6J mice; settings: higher doses, oral, compared to psilocybin
Description: as §1, §2, §3

CCCN(CC)CCc1c[nH]c2cccc(O[C@@H]3O[C@H](CO)[C@@H](O)[C@H](O)[C@H]3O)c12 [Cy1, 4-HO-EPT glycoside]
period of exposure, brain [1]: extended | period of exposure, plasma [2]: extended
